Activity calls are given as the source filed them.
How the values were obtained:
Type in all cases: functional, cell-based
[1] = test system: COLO-829; experiment: Antiproliferative activity against human COLO-829 cells assessed as reduction in cell viability incubated for 96 hrs in presence of 4-(2-(1H-indazol-4-yl)-6-((4-(methylsulfonyl)piperazin-1-yl)methyl)thieno[3,2-d]pyrimidin-4-yl)morpholine
[2] = test system: NCI-H2122; experiment: Antiproliferative activity against human NCI-H2122 cells assessed as reduction in cell viability incubated for 96 hrs in presence of 4-(2-(1H-indazol-4-yl)-6-((4-(methylsulfonyl)piperazin-1-yl)methyl)thieno[3,2-d]pyrimidin-4-yl)morpholine
[3] = test system: Hs-578T; experiment: Antiproliferative activity against human Hs-578T cells assessed as reduction in cell viability incubated for 96 hrs in presence of 4-(2-(1H-indazol-4-yl)-6-((4-(methylsulfonyl)piperazin-1-yl)methyl)thieno[3,2-d]pyrimidin-4-yl)morpholine

Measured: Activity

O=C(c1ccc(F)c(F)c1Nc1ccc(I)cc1F)N1CC(O)([C@@H]2CCCCN2)C1 [COBIMETINIB]
inactive: [1] | [2] | [3]

Reference: ChEMBL document CHEMBL5678805, “Intermittent administration of MEK inhibitor GDC-0973 plus PI3K inhibitor GDC-0941 triggers robust apoptosis and tumor growth inhibition” (Cancer Res, 2012)
